From ChEMBL document CHEMBL4028804, “The Necessary Nitrogen Atom: A Versatile High-Impact Design Element for Multiparameter Optimization” (J Med Chem, 2017)

What was measured:
Mu-type opioid receptor [1] = target: T1, Mu-type opioid receptor (Homo sapiens, UniProt P35372); test: Displacement of [3H]-DAMGO from human HA-tagged mu-opioid receptor expressed in HEK293 cells after 90 mins by liquid scintillation counting analysis; format: cell-based
Mu-type opioid receptor [2] = target: T1, Mu-type opioid receptor; test: Agonist activity at human mu-opioid receptor expressed in HEK293 cell membranes after 1 hr by [35S]-GTPgammaS binding assay; format: functional
Mu-type opioid receptor [3] = target: T1, Mu-type opioid receptor; test: Agonist activity at human mu-opioid receptor expressed in HEK293 cells coexpressing delta6-Galphaqi4-myr assessed as induction of intracellular calcium flux after 48 hrs by FLIPR assay; format: functional, cell-based

T1 sequence (P35372 whole entry): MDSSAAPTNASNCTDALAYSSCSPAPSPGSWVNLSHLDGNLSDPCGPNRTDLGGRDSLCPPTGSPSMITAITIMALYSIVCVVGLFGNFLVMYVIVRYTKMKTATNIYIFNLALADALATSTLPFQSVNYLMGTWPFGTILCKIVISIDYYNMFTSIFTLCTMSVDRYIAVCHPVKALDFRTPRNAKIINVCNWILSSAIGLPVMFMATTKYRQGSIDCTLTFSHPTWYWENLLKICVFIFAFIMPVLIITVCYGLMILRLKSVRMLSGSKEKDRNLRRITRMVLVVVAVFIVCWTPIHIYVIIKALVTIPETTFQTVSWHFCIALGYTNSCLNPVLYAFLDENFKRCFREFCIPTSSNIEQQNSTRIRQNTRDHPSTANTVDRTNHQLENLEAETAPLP

For `O=C(N[C@@H]1CC[C@@]2(O)[C@H]3Cc4ccc(O)c5c4[C@@]2(CCN3CC2CC2)[C@H]1O5)c1ccc2ccccc2c1`, the Ki (Mu-type opioid receptor [1]) was 0.0013 nM, the EC50 (Mu-type opioid receptor [2]) was 0.3 nM and the EC50 (Mu-type opioid receptor [3]) was over 1000 nM.
